According to patent US7060277B2 (priority 1996, dated 2006):
“Also recorded” adds a separate entry of the source. Square brackets hold non-standard residues; d marks the D form. Ends that are not written are not given here. Peptide text beside a SMILES is read from it.

Assays:
[1] = pig
[2] = mouse, in vivo
[3] = test system: SEB-mediated induction of IL-2, IFN-γ and/or TNF-β gene expression in PBMC; format: cell-based, human
[4] = test system: expression of IL-2 and IFN-γ genes in PBMC; format: cell-based, human
SEB-induced lethal shock = test system: SEB-induced lethal shock; design: species or system BALB/c mice; settings: mouse, in vivo
[5] = test system: induction of IL-2 / IFN-γ mRNA by TSST-1 in PBMC; format: cell-based, human

CC(C)C[C@H](NC(=O)[C@H](CCC(=O)O)NC(=O)[C@H](CCC(N)=O)NC(=O)[C@@H](NC(=O)[C@@H](NC(=O)[C@H](C)NC(=O)[C@H](CCCCN)NC(=O)[C@H](CCCCN)NC(=O)[C@H](CCCCN)NC(=O)[C@H](CC(N)=O)NC(=O)[C@H](Cc1ccc(O)cc1)NC(=O)[C@H](CCC(N)=O)NC(=O)[C@@H](NC(=O)[C@@H](C)N)C(C)C)[C@@H](C)O)C(C)C)C(=O)N[C@@H](CC(=O)O)C(=O)N[C@H](C)C(=O)O [p14A, daV Q Y N K K K A T V Q E L Dda] (H-[dA]VQYNKKKATVQELD[dA]-OH)
toxin agonist activity in vivo [1]: without any detectable toxin agonist activity in vivo
symptoms of incapacitation in pigs that received peptide alone ([1]; in vivo): failed to develop any symptoms of incapacitation
viability and side effects of mice exposed to peptide alone [2]: stayed fully viable and showed no detectable side effects

K K K V T A Q E L D (KKKVTAQELD) [pSEB(152–161)]
antagonist activity, SEB-mediated IL-2 mRNA induction [3]: pronounced antagonist activity

C Y N K K K A T V Q E L D C [Cys-p12(150–161)]
SEB antagonist activity, IL-2 and IFN-γ mRNA at 8 hrs [3]: significant SEB antagonist activity, even upon tenfold dilution
SEB antagonist activity, overall comparison [3]: more powerful as antagonist than p12(150–161)

IDQFLYFDLIYSIKDTKLGNY (IDQFLYFDLIYSIKDTKLGNY) [pSEB(41–61)]
SEB agonist activity, induction of mRNA for IL-2 or IFN-γ by RNase protection [4]: failed to show SEB agonist activity
block of induction of IL-2 and IFN-γ mRNA by SEB [3]: failed to block induction of IL-2 and IFN-γ mRNA by SEB

lpV Q Y N K K K A T V Q E L D [p14A-LP]
immunized mice that survived lethal SEB challenge (SEB-induced lethal shock): Ten out of 11
immunized survivors that survived rechallenge with a double dose of SEB (SEB-induced lethal shock): 7 out of the 10

YNKKKATVQELDYNKKKATVQELIYNKKKATVQELD (YNKKKATVQELDYNKKKATVQELIYNKKKATVQELD) [Trimer]
inhibition of induction of IL-2 and IFN-γ mRNA by SEB [3]: strongly inhibitory

TNKKKVTAQELD [pSEB(150–161), T N K K K V T A Q E L D]
viability of PBMC cultured with peptide (PBMC): undiminished viability

YNKKKATVQELD [p12(150–161), Y N K K K A T V Q E L D]
viability of PBMC cultured with peptide (PBMC): undiminished viability

K K K A T V Q E L D (KKKATVQELD) [p10(152–161)]
antagonist activity, SEB-mediated IL-2 mRNA induction [3]: pronounced antagonist activity; also recorded: lower, yet still significant, antagonist activity
inhibition of IL-2 gene induction by SEB [3]: up to 8 fold

CC(C)C[C@H](NC(=O)[C@H](CCC(=O)O)NC(=O)[C@H](CCC(N)=O)NC(=O)[C@@H](NC(=O)[C@@H](NC(=O)[C@H](C)NC(=O)[C@H](CCCCN)NC(=O)[C@H](CCCCN)NC(=O)[C@H](CCCCN)NC(=O)[C@H](CC(N)=O)NC(=O)[C@H](Cc1ccc(O)cc1)NC(=O)[C@@H](C)N)[C@@H](C)O)C(C)C)C(=O)N[C@@H](CC(=O)O)C(=O)N[C@H](C)C(=O)O [p12A, daY N K K K A T V Q E L Dda] (H-[dA]YNKKKATVQELD[dA]-OH)
side effects in peptide-treated, SEB-challenged mice [2]: No side effects
viability and side effects of mice exposed to peptide alone [2]: stayed fully viable and showed no detectable side effects

YNKKKATVQELDYNKKKATVQELI (YNKKKATVQELDYNKKKATVQELD; listed as Staphylococcus aureus) [Dimer]
inhibition of induction of IL-2 mRNA by TSST-1 [5]: inhibited
SEB antagonist activity, overall comparison [3]: more powerful as antagonist than p12(150–161)
inhibition of IFN-γ mRNA induction by SEB, peptide diluted 100-fold [3]: detectable inhibition
inhibition of SEB-induced IL-2 and IFN-γ gene expression [3]: effective as antagonist
inhibition of induction of IL-2 and IFN-γ mRNA by SEB [3]: strongly inhibitory
inhibition of induction of IL-2 mRNA by SEB [3]: inhibited
